Reference: patent US7939558B2, “Compounds having activity in increasing ion transport by mutant-CFTR and uses thereof” (The Regents of the University of California, priority 2004, dated 2011)

Columns and labels:
G551D-CFTR = G551D-CFTR (Homo sapiens, UniProt P13569, G551D); assay: Short-circuit Cl− current in FRT cells expressing G551D-CFTR
G1349D-CFTR = target: T1, G1349D-CFTR (Homo sapiens, UniProt P13569, G1349D); assay: Short-circuit Cl− current in FRT cells expressing G1349D-CFTR; type: cell-based
T1 construct: expressed in transfected cells; host or cells: FRT cells
Experimental: Experiments were done after basolateral membrane permeabilization and in the presence of a transepithelial Cl^− gradient, so that short-circuit current represents apical membrane Cl^− current. […] Cells were plated on a permeable support to generate a polarized epithelium, cultured for 5-7 days, and then incubated at 27° C. for 24 hours. Transepithelial chloride current was measured in a modified Ussing chamber in the presence of a chloride gradient.
In contrast to the ΔF508 mutation, other cystic fibrosis mutations, which number >1000, have a relatively very low frequency. The fraction of CF mutations that cause a pure gating defect (class III mutants) is unknown but is likely to be substantial.

[1] = Pharmacokinetics in rats after intravenous bolus; type: in vivo, rat; conditions: 5 mg/Kg intravenous bolus, plasma
Experimental: A bolus of potentiator-containing solution (5 mg/kg) was administered intravenously in rats over 1 min (male Sprague-Dawley rats, 360-420 grams) by a jugular vein catheter. Arterial blood samples (1 ml) were obtained at predetermined times for LCMS analysis.
For analysis of blood samples, collected plasma was chilled on ice, and ice-cold acetonitrile (2:1 v:v) was added to precipitate proteins. Samples were centrifuged at 4° C. at 20,000 g for 10 min. […] The eluate was evaporated, and the residue was reconstituted in 100 μl of mobile phase for HPLC analysis. Reversed-phase HPLC separations were carried out using a Supelco C18 column (2.1×100 mm, 3 μm particle size) connected to a solvent delivery system (Waters model 2690, Milford, Mass.). The solvent system consisted of a linear gradient from 20% CH3CN/10 mM KH2PO4, pH 3 to 95% CH3CN/10 mM KH2PO4, pH 3 over 10 min, followed by 6 min at 95% CH3CN/20 mM NH4OAc (0.2 ml/min flow rate). […] The detection limit was 10 nM and recovery was >90%. Mass spectra were acquired on a mass spectrometer (Alliance HT 2790+ZQ) using negative ion detection, scanning from 200 to 800 Da (Sonawane et al., J. Pharm. Sci. 94:134-143 (2004)).

[2] = Stability in hepatic microsomes (LCMS); type: in vitro ADME, rat
Experimental: A minor metabolite was also detected at 7.43 min with m/z 428. […] Compound S-3 was ˜35% degraded after a 1 hour incubation with liver microsomes in presence of NADPH.

[3] = target: multiple drug resistance protein-1 (MDR-1) (Homo sapiens, UniProt P08183); assay: MDR-1 activity by rhodamine 123 accumulation in 9HTEo- and 9HTEo-/Dx cells; conditions: verapamil 100 μM; P-1 and S-1 5 μM
[4] = after application of forskolin, versus forskolin alone

T1 sequence (P13569 whole entry G1349D): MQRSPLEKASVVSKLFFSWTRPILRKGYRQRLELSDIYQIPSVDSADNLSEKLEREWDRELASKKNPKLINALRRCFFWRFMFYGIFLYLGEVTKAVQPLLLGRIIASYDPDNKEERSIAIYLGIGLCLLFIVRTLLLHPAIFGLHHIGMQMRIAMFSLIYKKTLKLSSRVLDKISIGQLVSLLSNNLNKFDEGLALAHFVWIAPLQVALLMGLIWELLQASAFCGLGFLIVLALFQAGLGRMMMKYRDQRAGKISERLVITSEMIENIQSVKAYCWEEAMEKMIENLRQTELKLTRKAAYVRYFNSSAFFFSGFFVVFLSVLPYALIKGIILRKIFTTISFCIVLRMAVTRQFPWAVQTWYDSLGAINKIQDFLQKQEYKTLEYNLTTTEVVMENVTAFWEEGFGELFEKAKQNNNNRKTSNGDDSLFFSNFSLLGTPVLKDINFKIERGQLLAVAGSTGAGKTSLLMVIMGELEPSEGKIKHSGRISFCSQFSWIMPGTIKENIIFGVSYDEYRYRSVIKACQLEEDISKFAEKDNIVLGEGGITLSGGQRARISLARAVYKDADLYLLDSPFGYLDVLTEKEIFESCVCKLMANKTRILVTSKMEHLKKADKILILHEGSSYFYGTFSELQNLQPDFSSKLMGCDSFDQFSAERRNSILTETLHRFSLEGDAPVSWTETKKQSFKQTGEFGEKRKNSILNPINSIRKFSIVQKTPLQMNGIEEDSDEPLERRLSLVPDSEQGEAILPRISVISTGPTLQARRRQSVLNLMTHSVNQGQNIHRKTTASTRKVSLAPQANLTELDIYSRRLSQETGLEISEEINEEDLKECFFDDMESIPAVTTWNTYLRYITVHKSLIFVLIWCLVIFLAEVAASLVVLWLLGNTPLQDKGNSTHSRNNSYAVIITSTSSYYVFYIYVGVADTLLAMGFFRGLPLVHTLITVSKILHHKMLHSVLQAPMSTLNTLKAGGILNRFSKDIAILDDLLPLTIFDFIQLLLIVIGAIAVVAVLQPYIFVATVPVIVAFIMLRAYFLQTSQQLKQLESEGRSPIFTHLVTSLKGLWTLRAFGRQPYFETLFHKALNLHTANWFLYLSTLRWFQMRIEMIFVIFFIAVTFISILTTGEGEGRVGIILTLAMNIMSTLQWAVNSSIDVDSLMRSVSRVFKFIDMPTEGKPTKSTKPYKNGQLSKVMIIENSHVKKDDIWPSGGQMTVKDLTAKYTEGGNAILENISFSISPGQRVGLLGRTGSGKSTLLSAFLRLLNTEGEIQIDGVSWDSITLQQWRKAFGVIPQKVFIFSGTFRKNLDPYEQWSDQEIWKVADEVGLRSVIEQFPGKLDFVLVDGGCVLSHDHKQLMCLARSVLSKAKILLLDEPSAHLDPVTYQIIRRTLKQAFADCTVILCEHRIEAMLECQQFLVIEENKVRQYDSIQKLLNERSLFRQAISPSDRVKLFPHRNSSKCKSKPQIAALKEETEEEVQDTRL
Chain of G551D-CFTR (P13569 whole entry G551D): as the sequence (P13569 whole entry G1349D) above, with G551D, D1349G counted along it

Compound	Kd (G551D-CFTR) [nM]	activating potency relative to genistein (G551D-CFTR; G551D-CFTR)	elevation in current (G551D-CFTR; [4]) [fold]	Cl− current in G551D-CFTR expressing cells (G551D-CFTR; after maximal forskolin)	activating potency relative to genistein (G1349D-CFTR; G1349D-CFTR)	elevation in current (G1349D-CFTR; [4]) [fold]	Cl− current in G1349D-CFTR expressing cells (G1349D-CFTR; after maximal forskolin)	EC50 (G1349D-CFTR; read-out: potency for activation of G1349D-CFTR) [nM]	half-time, two-compartment model (first) [1]	half-time, two-compartment model (second) [1] [s]	compound metabolized / degraded ([2]; 10 μM, 1 hour, 37° C., presence of NADPH)	non-metabolized compound remaining ([2]; after 2 hours)	rhodamine 123 dye accumulation in 9HTEo-/Dx cells [3]
CC(C)c1ccc(NC(=O)C(c2ccccc2)N(C)C(=O)Cc2c[nH]c3ccccc23)cc1 (stereo not shown) [Compound P-1, 2-[(2-1H-Indol-3-yl-acetyl)-methyl-amino]-N-(4-isopropyl-phenyl)-2-phenyl-acetamide]	~1000	50-100 times	> 10	large currents	50-100 times	> 10	large currents	~40	approximately 0.2 hour	~3600	Approximately 90%	not detectable	
C=CCNC(=O)c1c[nH]c2ccc(S(=O)(=O)N(C)c3ccccc3OCC)cc2c1=O [Compound S-1, 6-[(2-Ethoxy-phenyl)-methyl-sulfamoyl]-4-oxo-1,4-dihydro-quinoline-3-carboxylic acid allylamide]													not affected
